Test results: patent publication US20040034216A1, “3-Nitrogen-6,7-dioxygen steroids and uses related thereto” (priority 2003, published 2004)
Read-outs that look alike come from different tables or passages of the source.

Columns and labels:
[1] = test system: Rat Mast Cell Line (RBL-2H3); assay: Antigen-induced release of hexosaminidase from a rat mast cell line (RBL-2H3); assay type: cell-based; conditions: tested at 0.3, 3, 10 and 30 μM, read-out: Hex IC50
Procedure: The anti-allergic effects of a compound of the present invention was evaluated by measuring its effect on antigen-induced secretion of hexosaminidase from a passively sensitized rat mast cell line. The ability of a test compound to inhibit the release of mast cell granule contents, e.g., histamine and hexosaminidase, is indicative of the anti-allergy and/or anti-asthma activity of the compound. Hexosaminidase is released from the mast cell granule along with histamine and other mediators during antigen challenge. The test is performed as follows.
RBL-2H3 cells are grown in culture and passively sensitized for 1 hour at 37° C. to dinitrophenol (DNP) using anti-human-DNP (IgE). Cells are incubated with test compound for 30 minutes at 37° C. and stimulated with 0.5 μg/ml DNP-HSA (antigen) for 30 minutes. Aliquots of the supernatant are removed and used to measure the amount of hexosaminidase released during challenge with the antigen. The amount of hexosaminidase present in the supernatant is determined colorimetrically by monitoring the enzymatic metabolism of p-nitrophenyl-N-acetyl-β-D-glucosaminide (p-NAG) over a period of 60 minutes at 405 nm. The effect of each test compound is determined as a percentage of the antigen-induced response (minus background release) obtained in the presence of DMSO alone. These values are used to determine the degrees of inhibition of antigen-induced hexosaminidase release from the cells.

Jurkat clone E6.1 cells = assay: Antigen-induced calcium flux in anti-CD3 stimulated Jurkat cells (Fura 2AM); assay type: cell-based; conditions: anti-CD3 mAb stimulated Jurkat clone E6.1 cells; for inhibition at 20 µM: Homo sapiens, Jurkat, read-out: Calcium (% inhibition at 20 μM), 20 μM
From the text: Elevation of cytoplasmic calcium concentration is a common and crucial event which follows the activation of many types of cell surface receptors. Increases in intracellular calcium that occur following agonist activation of inositol lipid hydrolysis are the results of calcium release from the endoplasmic reticulum and the influx of calcium through the plasma membrane. Increases in cytosolic calcium concentration are involved in many important cellular responses in the inflammatory process including adhesion, motility, gene expression, proliferation, and degranulation. Changes in intracellular calcium concentrations can affect both short and long term cellular responses. An assay method to evaluate a test compound's impact on calcium flux is provided as follows.
The resulting supernatants are discarded and each pellet is washed in 10 mL HBSS. Cell suspensions are accumulated and centrifuged for 5 minutes at 900 RPM to form a cell pellet. The resulting supernatant is discarded and the pellet is resuspended in HBSS at 1×10^7cells/mL. The cell suspension is transferred to a 20 mm petri dish and incubated at 37° C., 5% CO2 for 20 minutes.
One volume of Fura 2AM is mixed to one volume of detergent Pluronic F127. Cells are labeled with 4 μL of probe solution to each mL of cell suspension. The petri dish is wrapped in aluminum foil to protect from light and placed on a plate shaker for 30 minutes at room temperature.
The following steps are done in the laminar flow hood with the fluorescent lights turned off. The petri dish is removed from the shaker and the labeled cell suspension is transferred to a 15 mL conical tube and washed twice with HBSS as above. The cell pellet is resuspended in 12 mL HBSS and left wrapped in foil for 30 minutes at room temperature. The labeled cell suspension is aliquoted (100 μL/well) into a Dynex 96 well white opaque tissue culture plate. […] Selected compounds were tested for dose related activity. Test samples and activator (anti-CD3 mAb at final concentration of 4 μg/mL, PharMingen) are added manually (50 μL), such that the minimum time to acquire the first data point after stimulation is approximately 30 seconds. The calcium influx response to anti-CD3 mAb is measured as an “end point” assay. The entire plate is read in 100 seconds using a kinetic of 1 second per well.
The plate is read before the addition of anti-CD3 to monitor non-specific effect of samples/drugs. Fluorescence emission is measured at 510 nm with excitation alternating between 340 and 380 every second using an excitation/emission filter pair. Data from these dual wavelengths are represented as a ratio of 2 excitations wavelengths. This ratio is independent of intracellular dye and cell concentrations, enabling real comparison between experiments.

[2] = test system: sensitized Brown Norway rats; assay: Ovalbumin-induced accumulation of inflammatory cells in lung lavage fluid (allergen-induced lung inflammation); assay type: in vivo, rat; conditions: 1 mg/kg/day for 4 days, p.o., corn oil; lung lavage fluid
Procedure: The ability of a compound to inhibit the allergen-induced accumulation of inflammatory cells such as eosinophils and neutrophils in the lavage fluid obtained from sensitized animals is indicative of that compound's anti-asthma activity. […] The test is conducted as follows.
Male Brown Norway rats are sensitized to ovalbumin by single intraperitoneal injection of 1 mg ovalbumin adsorbed to 100 mg […] (alum) in 1 ml sterile saline (saline control rats receive only sterile saline) on day 1, and allowed to sensitize until day 21. […] Rats are challenged with 0.5% ovalbumin in saline generated using a Devillbis nebulizer for 60 min on day 21.
Forty-eight hrs after challenge, animals are sacrificed with an overdose of intraperitoneally-delivered sodium pentobarbitol and the lungs are lavaged with cold 2×7 ml phosphate buffered saline. The recovered lavage fluid is placed on ice. The bronchoalveolar lavage fluid is centrifuged and the supernatant removed. The pellet is resuspended in phosphate buffered saline at 4° C. Cytospins are prepared and stained for differentiation and enumeration of cell types.
Test compound was administered in 300 μl corn oil (Tables 7 and 8) or water (Table 9), which were used as vehicles. Control animals received 300 μl corn oil or water alone, i.e., no drug. […] A negative value in Table 7, 8, or 9 indicates an exacerbation of the effect over the control animal.

[3] = Rattus norvegicus, RBL-2H3, inhibition of antigen (DNP-HSA)-induced hexosaminidase release

Compound: C/C=C1/CCC2C3C(CC[C@]12C)[C@@]1(C)CCC(N2CCCCC2)CC1[C@@H](O)[C@@H]3O (stereo partly shown) [Compound 110]
- IC50 [1, 3]: 10.9 µM
- inhibition at 20 µM (Jurkat clone E6.1 cells): 39.7%

Compound: C/C=C1/CCC2C3C(CC[C@]12C)[C@@]1(C)CCC(NC)CC1[C@@H](O)[C@@H]3O (stereo partly shown) [Compound 113]
- IC50 [1, 3]: 9.8 µM
- inhibition at 20 µM (Jurkat clone E6.1 cells): 45%

Compound: CC=C1CCC2C3C(O)C(O)C4CC(NCCCCC)CCC4(C)C3CCC12C.Cl (stereo not shown) [Compound 115]
- Calcium (% inhibition at 20 μM) (Jurkat clone E6.1 cells): 40.0%

Compound: CC(=O)O.CC=C1CCC2C3C(O)C(O)C4CC(NC5CCCC5)CCC4(C)C3CCC12C (stereo not shown) [Compound 116]
- Calcium (% inhibition at 20 μM) (Jurkat clone E6.1 cells): 60.9%

Compound: CC=C1CCC2C3C(O)C(O)C4CC(NCCNCCC)CCC4(C)C3CCC12C (stereo not shown) [Compound 119]
- IC50 ([1]; inhibition of antigen (DNP-HSA)-induced hexosaminidase release): 6.1 µM

Compound: CC=C1CCC2C3C(O)C(O)C4CC(NCCN(C)C)CCC4(C)C3CCC12C.Cl.Cl (stereo not shown) [Compound 120]
- Calcium (% inhibition at 20 μM) (Jurkat clone E6.1 cells): 44.0%

Compound: CC=C1CCC2C3C(O)C(O)C4CC(NCCNCCO)CCC4(C)C3CCC12C.Cl.Cl (stereo not shown) [Compound 124]
- % inhibition of eosinophils [2]: −55%
- % inhibition of lymphocytes [2]: −26%
- % inhibition of neutrophils [2]: −76%
- Calcium (% inhibition at 20 μM) (Jurkat clone E6.1 cells): 21.0%

Compound: CC=C1CCC2C3C(O)C(O)C4CC(Nc5cccc(C)c5)CCC4(C)C3CCC12C.Cl (stereo not shown) [Compound 125]
- Calcium (% inhibition at 20 μM) (Jurkat clone E6.1 cells): 5.7%

Compound: CC=C1CCC2C3C(O)C(O)C4CC(Nc5ccc(O)cc5)CCC4(C)C3CCC12C.Cl (stereo not shown) [Compound 126]
- Calcium (% inhibition at 20 μM) (Jurkat clone E6.1 cells): 45.0%

Compound: C=C1CCC2C3C(CC[C@]12C)[C@@]1(C)CC[C@@H](NC(C)=O)CC1[C@@H](O)[C@@H]3O (stereo partly shown) [Compound 131]
- IC50 [1, 3]: 14.1 µM
- inhibition at 20 µM (Jurkat clone E6.1 cells): 9.9%

Compound: C=C1CCC2C3C(CC[C@]12C)[C@@]1(C)CC[C@@H](NS(=O)(=O)C(C)C)CC1[C@@H](O)[C@@H]3O (stereo partly shown) [Compound 133]
- % inhibition of eosinophils [2]: −43%
- % inhibition of lymphocytes [2]: 28%
- % inhibition of neutrophils [2]: 40%

Compound: C=C1CCC2C3C(CC[C@]12C)[C@@]1(C)CC[C@@H](NC(=O)Nc2ccccc2)CC1[C@@H](O)[C@@H]3O (stereo partly shown) [Compound 137]
- IC50 [1, 3]: 14.8 µM
- inhibition at 20 µM (Jurkat clone E6.1 cells): 13%

Compound: C=C1CCC2C3C(CC[C@]12C)[C@@]1(C)CC[C@@H](NC(=O)NCCC)CC1[C@@H](O)[C@@H]3O (stereo partly shown) [Compound 138]
- % inhibition of eosinophils [2]: −52%
- % inhibition of lymphocytes [2]: 33%
- % inhibition of neutrophils [2]: 35%
- Calcium (% inhibition at 20 μM) (Jurkat clone E6.1 cells): 9.0%

Compound: COc1ccc(CNC2CCC3(C)C(C2)C(O)C(O)C2C4=C(CCC23)C(C)(C)CC4)cc1OC.Cl (stereo not shown) [Compound 142]
- % inhibition of lymphocytes [2]: −42%
- % inhibition of neutrophils [2]: −1%

Compound: CCC1(C)CCC2=C1CCC1C2C(O)C(O)C2CC(NCc3ccccc3)CCC21C.Cl (stereo not shown) [Compound 146]
- % inhibition of eosinophils [2]: 8%
- % inhibition of lymphocytes [2]: −27%
- % inhibition of neutrophils [2]: 24%

Compound: CCC1(C)CCC2=C1CCC1C2C(O)C(O)C2CC(NCc3ccccc3)CCC21C.Cl (stereo not shown) [Compound 147]
- % inhibition of eosinophils [2]: 40%
- % inhibition of lymphocytes [2]: 36%
- % inhibition of neutrophils [2]: 58%

Compound: COC1C(OC)C2CC(N)CCC2(C)C2CCC3=C(CCC3(C)C)C12.Cl (stereo not shown) [Compound 148]
- Calcium (% inhibition at 20 μM) (Jurkat clone E6.1 cells): 6.6%
